Experimental data from patent US20110098177A1, “METHODS AND COMPOSITIONS OF PLANT MICRONUTRIENTS” (NOVUS INTERNATIONAL INC., priority 2006, published 2011).

Experiments:
Assay type in all cases: in vivo
Tygress tomato plants [1] = test: Foliar nutrient concentration 2 weeks after treatment, greenhouse tomato (Examples 4-6); conditions: for B concentration in tomato leaves / Ca concentration in tomato leaves / Cu concentration in tomato leaves / Fe concentration in tomato leaves / K concentration in tomato leaves / Mg concentration in tomato leaves / Mn concentration in tomato leaves / N concentration in tomato leaves / P concentration in tomato leaves: 2 weeks after treatment
Procedure: (§1) The following experiments were performed in a green house during the fall of 2008 and spring of 2009 at GCREC, Balm, University of Florida. Crop set-up, procedures and variables were as follows.
(§2) Transplants of Tygress' tomato plants were planted in 2-gallon pots filled with commercial planting medium with nutrient concentration of Fe, Zn, Mn, Cu being negligible and insufficient for crop growth. Irrigation and non-micronutrient fertilizer were provided daily through microsprinklers at recommended rates for tomato production in Florida. No pesticides were used. Treatments were as described in Tables 4, 5 and 6 below.
(§3) Treatments were applied at 5 WAT (weeks after transplanting) using a water volume of 200 mL/plant. A non-ionic surfactant was added. Foliar tissue analysis was performed at 3 and 7 WAT on the non-applied newest leaves. The concentrations of N, P, K, Mg, Ca, B, Zn, Mn, Fe, and Cu in the foliar tissue were determined from foliar analysis by a commercial laboratory at 2 weeks before treatment and again at 2 weeks after treatment.
(§4) Deionized water was used for foliar applications, and other nutrients were applied as appropriate under non-limiting conditions. Marketable fruit were collected three times during the growing season, starting at 10 WAT (5 weeks after the initial treatment). Tomato fruit was graded as extra-large, large and medium. Non-marketable fruit were harvested and number and weight recorded but not sized.
(§5) Experimental design was a randomized complete block design with 6 replications. Data were analyzed using a general linear model, and means were separated using an LSD test at the 5% significance level.

Tygress tomato plants [2] = test: Yields of tomato fruits, greenhouse (Examples 4-6); conditions: for Marketable yield: tomato fruits
Procedure: as §1, §2, §3, §4, §5

Tygress tomato plants [3] = test: Plant injury observed after BIOX-A foliar application, greenhouse tomato (Example 6); conditions: BIOX-A at concentrations of 2.86 or higher
Procedure: The following experiments were performed in a green house during the fall of 2008 and spring of 2009 at GCREC, Balm, University of Florida. Crop set-up, procedures and variables were as follows. […] Irrigation and non-micronutrient fertilizer were provided daily through microsprinklers at recommended rates for tomato production in Florida. No pesticides were used. Treatments were as described in Tables 4, 5 and 6 below. […] Treatments were applied at 5 WAT (weeks after transplanting) using a water volume of 200 mL/plant. A non-ionic surfactant was added. […] There were no significant differences between the foliar nutrient concentration of the leaves of any of the treatment groups prior to treatment.

SMILES: CSCCC(O)C(=O)O (stereo not shown) [BIOX-A, 2-hydroxy-4(methylthio)butanoic acid]
- B concentration in tomato leaves (Tygress tomato plants [1]; BIOX-A 0.69 lb/acre): 27 ppm
- Ca concentration in tomato leaves (Tygress tomato plants [1]; BIOX-A 0.69 lb/acre): 0.5%
- Cu concentration in tomato leaves (Tygress tomato plants [1]; BIOX-A 0.69 lb/acre): 29 ppm
- Fe concentration in tomato leaves (Tygress tomato plants [1]; BIOX-A 0.69 lb/acre): 85 ppm
- K concentration in tomato leaves (Tygress tomato plants [1]; BIOX-A 0.69 lb/acre): 3.2%
- Mg concentration in tomato leaves (Tygress tomato plants [1]; BIOX-A 0.69 lb/acre): 0.3%
- Mn concentration in tomato leaves (Tygress tomato plants [1]; BIOX-A 0.69 lb/acre): 56 ppm
- N concentration in tomato leaves (Tygress tomato plants [1]; BIOX-A 0.69 lb/acre): 3.4%
- P concentration in tomato leaves (Tygress tomato plants [1]; BIOX-A 0.69 lb/acre): 0.6%
- B concentration in tomato leaves (Tygress tomato plants [1]; BIOX-A 1.37 lb/acre): 28 ppm
- Ca concentration in tomato leaves (Tygress tomato plants [1]; BIOX-A 1.37 lb/acre): 0.6%
- Cu concentration in tomato leaves (Tygress tomato plants [1]; BIOX-A 1.37 lb/acre): 31 ppm
- Fe concentration in tomato leaves (Tygress tomato plants [1]; BIOX-A 1.37 lb/acre): 88 ppm
- K concentration in tomato leaves (Tygress tomato plants [1]; BIOX-A 1.37 lb/acre): 3.4%
- Mg concentration in tomato leaves (Tygress tomato plants [1]; BIOX-A 1.37 lb/acre): 0.3%
- Mn concentration in tomato leaves (Tygress tomato plants [1]; BIOX-A 1.37 lb/acre): 55 ppm
- N concentration in tomato leaves (Tygress tomato plants [1]; BIOX-A 1.37 lb/acre): 3.7%
- P concentration in tomato leaves (Tygress tomato plants [1]; BIOX-A 1.37 lb/acre): 0.4%
- B concentration in tomato leaves (Tygress tomato plants [1]; BIOX-A 2.86 lb/acre): 28 ppm
- Ca concentration in tomato leaves (Tygress tomato plants [1]; BIOX-A 2.86 lb/acre): 0.6%
- Cu concentration in tomato leaves (Tygress tomato plants [1]; BIOX-A 2.86 lb/acre): 50 ppm
- Fe concentration in tomato leaves (Tygress tomato plants [1]; BIOX-A 2.86 lb/acre): 87 ppm
- K concentration in tomato leaves (Tygress tomato plants [1]; BIOX-A 2.86 lb/acre): 3.3%
- Mg concentration in tomato leaves (Tygress tomato plants [1]; BIOX-A 2.86 lb/acre): 0.1%
- Mn concentration in tomato leaves (Tygress tomato plants [1]; BIOX-A 2.86 lb/acre): 54 ppm
- N concentration in tomato leaves (Tygress tomato plants [1]; BIOX-A 2.86 lb/acre): 3.1%
- P concentration in tomato leaves (Tygress tomato plants [1]; BIOX-A 2.86 lb/acre): 0.4%
- B concentration in tomato leaves (Tygress tomato plants [1]; BIOX-A 5.52 lb/acre): 24 ppm
- Ca concentration in tomato leaves (Tygress tomato plants [1]; BIOX-A 5.52 lb/acre): 0.6%
- Cu concentration in tomato leaves (Tygress tomato plants [1]; BIOX-A 5.52 lb/acre): 28 ppm
- Fe concentration in tomato leaves (Tygress tomato plants [1]; BIOX-A 5.52 lb/acre): 90 ppm
- K concentration in tomato leaves (Tygress tomato plants [1]; BIOX-A 5.52 lb/acre): 2.1%
- Mg concentration in tomato leaves (Tygress tomato plants [1]; BIOX-A 5.52 lb/acre): 0.1%
- Mn concentration in tomato leaves (Tygress tomato plants [1]; BIOX-A 5.52 lb/acre): 53 ppm
- N concentration in tomato leaves (Tygress tomato plants [1]; BIOX-A 5.52 lb/acre): 2.7%
- P concentration in tomato leaves (Tygress tomato plants [1]; BIOX-A 5.52 lb/acre): 0.5%
- B concentration in tomato leaves (Tygress tomato plants [1]; BIOX-A 8.28 lb/acre): 25 ppm
- Ca concentration in tomato leaves (Tygress tomato plants [1]; BIOX-A 8.28 lb/acre): 0.5%
- Cu concentration in tomato leaves (Tygress tomato plants [1]; BIOX-A 8.28 lb/acre): 25 ppm
- Fe concentration in tomato leaves (Tygress tomato plants [1]; BIOX-A 8.28 lb/acre): 9 ppm
- K concentration in tomato leaves (Tygress tomato plants [1]; BIOX-A 8.28 lb/acre): 0.9%
- Mg concentration in tomato leaves (Tygress tomato plants [1]; BIOX-A 8.28 lb/acre): 0.1%
- Mn concentration in tomato leaves (Tygress tomato plants [1]; BIOX-A 8.28 lb/acre): 57 ppm
- N concentration in tomato leaves (Tygress tomato plants [1]; BIOX-A 8.28 lb/acre): 1.7%
- P concentration in tomato leaves (Tygress tomato plants [1]; BIOX-A 8.28 lb/acre): 0.6%
- Effect on foliar concentration of N, P, K, Mg, Ca, B, Mn, Fe and Zn relative to the control (Tygress tomato plants [1]; BIOX-A, all applied concentrations, P>0.05): None of the applied concentrations of BIOX-A had a significant effect
- Marketable and unmarketable yields (in words) (Tygress tomato plants [2]; 1.37 lb/acre or less of BIOX-A): statistically similar
- Marketable yield (Tygress tomato plants [2]; BIOX-A 0.69 lb/acre): 2.3 lb/plant
- Marketable yield (Tygress tomato plants [2]; BIOX-A 1.37 lb/acre): 2.4 lb/plant
- Marketable yield (Tygress tomato plants [2]; BIOX-A 2.86 lb/acre): 1.1 lb/plant
- Marketable yield (Tygress tomato plants [2]; BIOX-A 5.52 lb/acre): 0 lb/plant
- Marketable yield (Tygress tomato plants [2]; BIOX-A 8.28 lb/acre): 0 lb/plant
- Non-marketable tomato yields compared with control (in words) (Tygress tomato plants [2]; BIOX-A at concentrations of 2.86 or higher): significantly higher non-marketable tomato yields than control
- Marketable tomato yields (in words) (Tygress tomato plants [2]; BIOX-A at concentrations of 2.86 or higher, P<0.05): significantly decreased
- Plant injury (in words) (Tygress tomato plants [3]): severely injured tomato plants
